Experiment: xn = mol fraction of the nth substance listed
Conditions: 101 kPa, Liquid

CC(C)(C)O [2-methylpropan-2-ol] + CCCCO
Conditions	mass density [kg/m3]	viscosity [mPa·s]
308.15 K, x2 = 0.1017	774.752	3.438
308.15 K, x2 = 0.2006	778.293	3.374
308.15 K, x2 = 0.3008	781.316	3.302
308.15 K, x2 = 0.4005	784.068	3.22
308.15 K, x2 = 0.5011	786.651	3.125
308.15 K, x2 = 0.6002	789.119	3.021
308.15 K, x2 = 0.6975	791.52	2.912
308.15 K, x2 = 0.7987	793.957	2.791
308.15 K, x2 = 0.8978	796.247	2.667
313.15 K, x2 = 0.1017	769.698	2.787
313.15 K, x2 = 0.2006	773.439	2.763
313.15 K, x2 = 0.3008	776.66	2.733
313.15 K, x2 = 0.4005	779.566	2.693
313.15 K, x2 = 0.5011	782.289	2.64
313.15 K, x2 = 0.6002	784.884	2.577
313.15 K, x2 = 0.6975	787.385	2.508
313.15 K, x2 = 0.7987	789.899	2.429
313.15 K, x2 = 0.8978	792.264	2.347
318.15 K, x2 = 0.1017	764.541	2.299
318.15 K, x2 = 0.2006	768.484	2.302
318.15 K, x2 = 0.3008	771.902	2.298
318.15 K, x2 = 0.4005	774.974	2.284
318.15 K, x2 = 0.5011	777.844	2.258
318.15 K, x2 = 0.6002	780.565	2.223
318.15 K, x2 = 0.6975	783.18	2.182
318.15 K, x2 = 0.7987	785.795	2.131
318.15 K, x2 = 0.8978	788.241	2.076
323.15 K, x2 = 0.1017	759.283	1.922
323.15 K, x2 = 0.2006	763.421	1.942
323.15 K, x2 = 0.3008	767.037	1.956
323.15 K, x2 = 0.4005	770.272	1.957
323.15 K, x2 = 0.5011	773.307	1.95
323.15 K, x2 = 0.6002	776.162	1.934
323.15 K, x2 = 0.6975	778.901	1.91
323.15 K, x2 = 0.7987	781.617	1.877
323.15 K, x2 = 0.8978	784.158	1.841
328.15 K, x2 = 0.1017	753.923	1.635
328.15 K, x2 = 0.2006	758.252	1.666
328.15 K, x2 = 0.3008	762.068	1.69
328.15 K, x2 = 0.4005	765.483	1.704
328.15 K, x2 = 0.5011	768.677	1.709
328.15 K, x2 = 0.6002	771.695	1.704
328.15 K, x2 = 0.6975	774.542	1.692
328.15 K, x2 = 0.7987	777.372	1.672
328.15 K, x2 = 0.8978	780.002	1.65
333.15 K, x2 = 0.1017	748.453	1.406
333.15 K, x2 = 0.2006	752.974	1.439
333.15 K, x2 = 0.3008	756.986	1.466
333.15 K, x2 = 0.4005	760.579	1.486
333.15 K, x2 = 0.5011	763.946	1.5
333.15 K, x2 = 0.6002	767.111	1.504
333.15 K, x2 = 0.6975	770.1	1.501
333.15 K, x2 = 0.7987	773.05	1.492
333.15 K, x2 = 0.8978	775.796	1.478
338.15 K, x2 = 0.1017	742.882	1.221
338.15 K, x2 = 0.2006	747.587	1.254
338.15 K, x2 = 0.3008	751.795	1.282
338.15 K, x2 = 0.4005	755.568	1.306
338.15 K, x2 = 0.5011	759.113	1.324
338.15 K, x2 = 0.6002	762.433	1.335
338.15 K, x2 = 0.6975	765.569	1.339
338.15 K, x2 = 0.7987	768.651	1.34
338.15 K, x2 = 0.8978	771.52	1.335
343.15 K, x2 = 0.1017	737.201	1.07
343.15 K, x2 = 0.2006	742.083	1.103
343.15 K, x2 = 0.3008	746.492	1.131
343.15 K, x2 = 0.4005	750.446	1.156
343.15 K, x2 = 0.5011	754.166	1.177
343.15 K, x2 = 0.6002	757.655	1.191
343.15 K, x2 = 0.6975	760.941	1.2
343.15 K, x2 = 0.7987	764.169	1.207
343.15 K, x2 = 0.8978	767.155	1.208

CCC(C)O (stereo unspecified) [butan-2-ol] + CCCCO
Conditions	mass density [kg/m3]	viscosity [mPa·s]
303.15 K, x2 = 0.1008	798.816	3.157
303.15 K, x2 = 0.2005	799.24	3.08
303.15 K, x2 = 0.3002	799.646	3.027
303.15 K, x2 = 0.4006	800.045	2.987
303.15 K, x2 = 0.5004	800.435	2.956
303.15 K, x2 = 0.6005	800.827	2.932
303.15 K, x2 = 0.6999	801.204	2.912
303.15 K, x2 = 0.7989	801.568	2.894
303.15 K, x2 = 0.8988	801.909	2.875
308.15 K, x2 = 0.1008	794.588	2.679
308.15 K, x2 = 0.2005	795.059	2.65
308.15 K, x2 = 0.3002	795.516	2.626
308.15 K, x2 = 0.4006	795.957	2.609
308.15 K, x2 = 0.5004	796.396	2.595
308.15 K, x2 = 0.6005	796.828	2.583
308.15 K, x2 = 0.6999	797.242	2.57
308.15 K, x2 = 0.7989	797.635	2.557
308.15 K, x2 = 0.8988	798.014	2.545
313.15 K, x2 = 0.1008	790.266	2.312
313.15 K, x2 = 0.2005	790.801	2.299
313.15 K, x2 = 0.3002	791.313	2.288
313.15 K, x2 = 0.4006	791.795	2.283
313.15 K, x2 = 0.5004	792.279	2.278
313.15 K, x2 = 0.6005	792.762	2.275
313.15 K, x2 = 0.6999	793.224	2.272
313.15 K, x2 = 0.7989	793.655	2.268
313.15 K, x2 = 0.8988	794.069	2.264
318.15 K, x2 = 0.1008	785.851	1.982
318.15 K, x2 = 0.2005	786.455	1.981
318.15 K, x2 = 0.3002	787.036	1.981
318.15 K, x2 = 0.4006	787.575	1.982
318.15 K, x2 = 0.5004	788.113	1.986
318.15 K, x2 = 0.6005	788.64	1.992
318.15 K, x2 = 0.6999	789.157	1.999
318.15 K, x2 = 0.7989	789.625	2.007
318.15 K, x2 = 0.8988	790.08	2.013
323.15 K, x2 = 0.1008	781.329	1.723
323.15 K, x2 = 0.2005	782.01	1.737
323.15 K, x2 = 0.3002	782.667	1.75
323.15 K, x2 = 0.4006	783.274	1.763
323.15 K, x2 = 0.5004	783.873	1.773
323.15 K, x2 = 0.6005	784.456	1.782
323.15 K, x2 = 0.6999	785.021	1.79
323.15 K, x2 = 0.7989	785.535	1.795
323.15 K, x2 = 0.8988	786.04	1.798
328.15 K, x2 = 0.1008	776.706	1.506
328.15 K, x2 = 0.2005	777.468	1.525
328.15 K, x2 = 0.3002	778.208	1.543
328.15 K, x2 = 0.4006	778.887	1.56
328.15 K, x2 = 0.5004	779.553	1.576
328.15 K, x2 = 0.6005	780.198	1.59
328.15 K, x2 = 0.6999	780.817	1.602
328.15 K, x2 = 0.7989	781.386	1.612
328.15 K, x2 = 0.8988	781.936	1.621
333.15 K, x2 = 0.1008	771.968	1.327
333.15 K, x2 = 0.2005	772.822	1.349
333.15 K, x2 = 0.3002	773.649	1.369
333.15 K, x2 = 0.4006	774.407	1.387
333.15 K, x2 = 0.5004	775.144	1.405
333.15 K, x2 = 0.6005	775.861	1.421
333.15 K, x2 = 0.6999	776.534	1.434
333.15 K, x2 = 0.7989	777.165	1.447
333.15 K, x2 = 0.8988	777.765	1.457
338.15 K, x2 = 0.1008	767.116	1.178
338.15 K, x2 = 0.2005	768.057	1.201
338.15 K, x2 = 0.3002	768.985	1.224
338.15 K, x2 = 0.4006	769.83	1.242
338.15 K, x2 = 0.5004	770.644	1.258
338.15 K, x2 = 0.6005	771.436	1.275
338.15 K, x2 = 0.6999	772.174	1.29
338.15 K, x2 = 0.7989	772.85	1.302
338.15 K, x2 = 0.8988	773.53	1.315
343.15 K, x2 = 0.1008	762.161	1.055
343.15 K, x2 = 0.2005	763.194	1.08
343.15 K, x2 = 0.3002	764.213	1.102
343.15 K, x2 = 0.4006	765.15	1.121
343.15 K, x2 = 0.5004	766.048	1.138
343.15 K, x2 = 0.6005	766.918	1.155
343.15 K, x2 = 0.6999	767.729	1.171
343.15 K, x2 = 0.7989	768.484	1.184
343.15 K, x2 = 0.8988	769.214	1.197
